Test results: article PMC10322960 (European Journal of Drug Metabolism and Pharmacokinetics, 2023)

Experiments:
CYP2D6 = CYP2D6 (Homo sapiens, UniProt P10635); assay: In vitro P450 inhibition, recombinant CYP2D6; assay type: in vitro ADME
MATE1 = target: T1, MATE1 (Homo sapiens, UniProt Q96FL8); assay: MATE1 uptake inhibition assay; assay type: in vitro ADME
T1 sequence (Q96FL8 1-570): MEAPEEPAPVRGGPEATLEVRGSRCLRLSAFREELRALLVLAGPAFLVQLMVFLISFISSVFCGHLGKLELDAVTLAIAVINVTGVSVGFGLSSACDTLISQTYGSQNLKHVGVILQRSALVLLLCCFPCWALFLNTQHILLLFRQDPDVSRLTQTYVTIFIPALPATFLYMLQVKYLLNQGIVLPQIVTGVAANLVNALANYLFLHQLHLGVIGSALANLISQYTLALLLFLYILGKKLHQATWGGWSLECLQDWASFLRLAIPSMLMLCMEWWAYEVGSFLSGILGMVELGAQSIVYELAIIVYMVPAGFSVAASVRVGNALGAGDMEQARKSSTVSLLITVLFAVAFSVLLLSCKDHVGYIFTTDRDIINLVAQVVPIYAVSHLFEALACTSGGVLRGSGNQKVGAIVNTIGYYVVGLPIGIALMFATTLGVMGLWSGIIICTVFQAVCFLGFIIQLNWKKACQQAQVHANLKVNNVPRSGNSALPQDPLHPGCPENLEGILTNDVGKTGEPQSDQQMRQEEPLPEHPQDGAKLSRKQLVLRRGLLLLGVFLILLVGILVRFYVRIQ

MDR1 = MDR1 (Homo sapiens, UniProt P08183); assay: MDR1 monolayer substrate assay; assay type: in vitro ADME
MDR1, sequence (P08183 whole entry): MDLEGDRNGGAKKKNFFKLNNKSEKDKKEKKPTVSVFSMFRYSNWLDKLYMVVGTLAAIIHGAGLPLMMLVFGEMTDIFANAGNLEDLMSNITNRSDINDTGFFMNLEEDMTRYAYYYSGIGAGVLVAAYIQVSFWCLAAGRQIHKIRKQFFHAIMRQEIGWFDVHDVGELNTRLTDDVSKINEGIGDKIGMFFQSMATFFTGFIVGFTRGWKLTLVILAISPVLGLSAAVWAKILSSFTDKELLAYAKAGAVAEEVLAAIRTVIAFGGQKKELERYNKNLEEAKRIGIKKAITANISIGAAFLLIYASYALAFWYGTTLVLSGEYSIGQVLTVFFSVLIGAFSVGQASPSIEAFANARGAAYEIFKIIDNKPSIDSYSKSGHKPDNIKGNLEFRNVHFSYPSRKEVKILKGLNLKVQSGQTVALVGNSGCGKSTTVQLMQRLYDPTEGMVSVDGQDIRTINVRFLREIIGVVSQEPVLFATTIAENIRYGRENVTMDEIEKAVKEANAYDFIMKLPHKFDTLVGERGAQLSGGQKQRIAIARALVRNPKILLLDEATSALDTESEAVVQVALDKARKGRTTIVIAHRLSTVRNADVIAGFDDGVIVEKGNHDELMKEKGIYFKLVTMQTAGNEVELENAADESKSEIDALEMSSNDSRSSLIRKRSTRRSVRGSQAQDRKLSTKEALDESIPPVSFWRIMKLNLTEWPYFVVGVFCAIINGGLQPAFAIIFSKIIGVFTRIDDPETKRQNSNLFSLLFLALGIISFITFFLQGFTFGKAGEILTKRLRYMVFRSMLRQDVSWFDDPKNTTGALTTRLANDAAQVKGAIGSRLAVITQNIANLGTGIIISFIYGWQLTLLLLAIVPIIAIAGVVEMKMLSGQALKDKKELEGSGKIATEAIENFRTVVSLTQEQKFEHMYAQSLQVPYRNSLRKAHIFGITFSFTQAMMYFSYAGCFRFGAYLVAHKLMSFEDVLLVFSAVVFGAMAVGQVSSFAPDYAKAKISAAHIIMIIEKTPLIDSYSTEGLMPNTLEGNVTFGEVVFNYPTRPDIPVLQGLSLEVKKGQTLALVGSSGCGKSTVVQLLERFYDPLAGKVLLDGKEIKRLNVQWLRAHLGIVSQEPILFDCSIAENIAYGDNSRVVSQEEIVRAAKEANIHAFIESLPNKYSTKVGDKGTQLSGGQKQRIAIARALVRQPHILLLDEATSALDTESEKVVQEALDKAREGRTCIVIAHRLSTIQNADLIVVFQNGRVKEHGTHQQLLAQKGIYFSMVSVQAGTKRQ

OATP1B1 = target: T2, OATP1B1 (Homo sapiens, UniProt Q9Y6L6); assay: OATP1B1 uptake substrate assay; assay type: in vitro ADME
T2 sequence (Q9Y6L6 1-691): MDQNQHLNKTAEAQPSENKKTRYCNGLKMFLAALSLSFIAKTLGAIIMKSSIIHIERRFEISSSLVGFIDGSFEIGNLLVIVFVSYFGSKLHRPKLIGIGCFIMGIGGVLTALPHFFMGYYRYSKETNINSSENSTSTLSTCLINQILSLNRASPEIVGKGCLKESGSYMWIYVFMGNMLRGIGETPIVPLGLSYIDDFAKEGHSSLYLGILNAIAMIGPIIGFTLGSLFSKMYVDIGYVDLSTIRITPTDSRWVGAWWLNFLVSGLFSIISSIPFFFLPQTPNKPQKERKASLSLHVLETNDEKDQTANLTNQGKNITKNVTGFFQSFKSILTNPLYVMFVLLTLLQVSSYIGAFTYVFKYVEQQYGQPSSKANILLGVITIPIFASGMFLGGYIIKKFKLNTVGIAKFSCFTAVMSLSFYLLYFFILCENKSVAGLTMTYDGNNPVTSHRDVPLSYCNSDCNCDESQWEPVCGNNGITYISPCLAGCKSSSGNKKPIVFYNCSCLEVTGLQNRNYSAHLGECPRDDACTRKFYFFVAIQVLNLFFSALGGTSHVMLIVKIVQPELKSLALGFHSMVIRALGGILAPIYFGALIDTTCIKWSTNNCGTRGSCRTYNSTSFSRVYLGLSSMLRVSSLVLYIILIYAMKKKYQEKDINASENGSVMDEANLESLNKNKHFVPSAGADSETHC

OATP1B3 = target: T3, OATP1B3 (Homo sapiens, UniProt Q9NPD5); assay: OATP1B3 uptake substrate assay; assay type: in vitro ADME
T3 sequence (Q9NPD5 1-702): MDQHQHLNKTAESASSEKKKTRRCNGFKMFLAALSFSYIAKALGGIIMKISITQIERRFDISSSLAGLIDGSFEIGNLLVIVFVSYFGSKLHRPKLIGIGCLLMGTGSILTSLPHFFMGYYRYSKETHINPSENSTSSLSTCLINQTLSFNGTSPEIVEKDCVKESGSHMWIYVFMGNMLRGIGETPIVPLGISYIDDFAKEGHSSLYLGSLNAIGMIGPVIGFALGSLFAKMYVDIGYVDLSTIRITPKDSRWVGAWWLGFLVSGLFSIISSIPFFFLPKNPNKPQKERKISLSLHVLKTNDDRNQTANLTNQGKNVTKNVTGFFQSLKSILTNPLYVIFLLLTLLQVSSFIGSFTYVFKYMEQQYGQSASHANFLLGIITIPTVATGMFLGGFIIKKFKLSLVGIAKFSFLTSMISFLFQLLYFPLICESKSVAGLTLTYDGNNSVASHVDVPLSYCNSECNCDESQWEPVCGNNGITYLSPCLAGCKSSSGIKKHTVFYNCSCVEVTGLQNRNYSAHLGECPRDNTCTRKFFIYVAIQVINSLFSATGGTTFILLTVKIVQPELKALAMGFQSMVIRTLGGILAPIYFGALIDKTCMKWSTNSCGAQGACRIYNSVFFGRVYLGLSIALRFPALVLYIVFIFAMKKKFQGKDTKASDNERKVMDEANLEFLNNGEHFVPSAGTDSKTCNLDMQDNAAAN

OCT2 = target: T4, OCT2 (Homo sapiens, UniProt O15244); assay: OCT2 uptake substrate assay; assay type: in vitro ADME
T4 sequence (O15244 1-555): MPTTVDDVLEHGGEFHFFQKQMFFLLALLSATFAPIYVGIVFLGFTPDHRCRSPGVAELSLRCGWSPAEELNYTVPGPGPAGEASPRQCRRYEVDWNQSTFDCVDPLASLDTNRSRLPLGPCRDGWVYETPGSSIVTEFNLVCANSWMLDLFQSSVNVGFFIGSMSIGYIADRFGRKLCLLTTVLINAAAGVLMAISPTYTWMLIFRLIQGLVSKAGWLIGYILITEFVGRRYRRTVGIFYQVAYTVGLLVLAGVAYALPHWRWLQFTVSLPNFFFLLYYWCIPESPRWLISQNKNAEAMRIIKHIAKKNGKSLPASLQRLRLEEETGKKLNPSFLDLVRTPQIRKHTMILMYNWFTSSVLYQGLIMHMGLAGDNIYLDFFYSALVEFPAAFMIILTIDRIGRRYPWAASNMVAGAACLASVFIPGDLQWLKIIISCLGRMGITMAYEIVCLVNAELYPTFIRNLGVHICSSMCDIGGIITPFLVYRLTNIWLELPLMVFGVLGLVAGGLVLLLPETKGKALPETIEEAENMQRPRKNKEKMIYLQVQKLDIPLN

[1] = following 0.5-mg dose at steady state; not from this study, ref not given; cited from earlier work
[2] = 0.5 to 30 mg administered orally; cited from earlier work
[3] = transporter-expressing vs control cells, 0.04–40 µm

CYP2D6, sequence (P10635 whole entry): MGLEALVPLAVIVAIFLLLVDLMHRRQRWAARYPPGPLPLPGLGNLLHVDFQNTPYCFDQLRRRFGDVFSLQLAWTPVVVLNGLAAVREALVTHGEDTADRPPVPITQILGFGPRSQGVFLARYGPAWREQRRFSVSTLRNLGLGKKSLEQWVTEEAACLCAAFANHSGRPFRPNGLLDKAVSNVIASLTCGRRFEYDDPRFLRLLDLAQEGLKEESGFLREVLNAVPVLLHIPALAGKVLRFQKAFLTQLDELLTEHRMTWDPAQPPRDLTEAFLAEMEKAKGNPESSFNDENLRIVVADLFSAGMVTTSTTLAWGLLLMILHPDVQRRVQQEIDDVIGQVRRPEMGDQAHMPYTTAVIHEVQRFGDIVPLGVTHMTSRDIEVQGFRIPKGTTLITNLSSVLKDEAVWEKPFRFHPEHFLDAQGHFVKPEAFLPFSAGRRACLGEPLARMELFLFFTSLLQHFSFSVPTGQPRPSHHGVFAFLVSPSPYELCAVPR

With N#Cc1ccc(N2N=C3c4ccc(C(=O)N5CCC(O)CC5)nc4CC[C@@H]3[C@@H]2C2CCCC2)cc1Cl [Ocedurenone, ocedurenone] the “percent remaining activity of CYP2D6” value (CYP2D6; ocedurenone at 200 μM) was 87.8%, the IC50 (CYP2D6; read-out: IC50 CYP2D6, recombinant CYP) was > 200 µM and the “inhibition category CYP2D6” value (CYP2D6; recombinant enzyme) was “little or no inhibition”. The “maximum inhibition of MATE1-mediated probe substrate accumulation” value (MATE1; at 40 µM) was 95%, the IC50 (MATE1; read-out: Inhibition results (IC50), MATE1 UPT, probe metformin (10 µm), Table 1) was 6.7 µM and the “Substrate, MDR1 ML” value (MDR1) was “likely a substrate”. For the same compound, the “Substrate, OATP1B1 UPT” value (OATP1B1) was “not likely to be a substrate”, the “Maximum fold accumulation, OATP1B1 UPT” value (OATP1B1; [3]) was 1.0 and the “Substrate, OATP1B3 UPT” value (OATP1B3) was “not likely to be a substrate”. The “Maximum fold accumulation, OATP1B3 UPT” value (OATP1B3; [3]) was 1.1, the “Substrate, OCT2 UPT” value (OCT2) was “not likely to be a substrate” and the “Maximum fold accumulation, OCT2 UPT” value (OCT2; [3]) was 1.0. The “plasma Cmax at steady state” value [1] was 32 to 40 ng/mL and the “safety and tolerability, single ascending dose” value [2] was “safe and well-tolerated”.
